Like-named read-outs stand apart in the source and are kept apart here.
Target: T1, FITC-IFN-α2b (Homo sapiens, UniProt P01563)
T1 construct: single non-glycosylated polypeptide chain with a molecular weight of 19 kDa, comprising 165 amino acids; purchased Millipore Sigma-Aldrich SRP4595-100UG; host or cells: E. coli
Assay: MST binding to FITC-IFN-α2b
Description: Typically, in the labeling process, one amine per protein is labeled, statistically distributing the position of the dye. Consequently, the risk of the label impairing the binding is minimal, given the typical number of lysine residues in proteins. […] The MST assay was performed as detailed in Section 3. […] For IFN- α 2b a concentration of 2.7 μ M was also prepared to compare it with previous results on MST-binding between FILs and IFN- α 2b fluorescently labeled with a different tag. In each run of MST, a maximum concentration of a ligand is selected and consecutively diluted in sixteen capillaries. […] The experimental conditions of the MST assay only allow the study of the aggregation phenomenon individually for the first CAC. For the MST runs with the concentration of the first capillary above the second CAC, the determined K d values for the runs that yield binding are influenced by several aggregates, making it impossible to attribute the K d value to a specific CAC. However, K d comprises the influence of the distinct aggregates of the FIL on binding affinity with both proteins, allowing a qualitative analysis of the impact of the different aggregates on binding affinity.
Microscale thermophoresis (MST) measurements of the dye-labeled protein were used to conduct binding investigations. […] MST tests were conducted in a monolith NT.115 (blue/red) in accordance with the NanoTemper Technologies methodology. Medium MST power and 20% LED power (nano-blue) were set as the instrument’s default settings. For every MST measurement, a PBS buffer was used. The concentration of FITC-BSA was fixed at 0.4 μ M and FITC-IFN- α 2b was tested under two different concentrations (of 0.4 and 2.7 μ M). The ligand was used to create a set of 16 1:1 dilutions, with the starting ligand concentrations ranging from 10 to 400 mM. The typical parameters for MST traces were used for recording: […], 30 s MST power on, and 5 s MST power off. The data from three independently conducted pipetted experiments were examined using NanoTemper Technologies’ MO.Affinity Analysis software, version 2.3.

T1 sequence (P01563 24-188): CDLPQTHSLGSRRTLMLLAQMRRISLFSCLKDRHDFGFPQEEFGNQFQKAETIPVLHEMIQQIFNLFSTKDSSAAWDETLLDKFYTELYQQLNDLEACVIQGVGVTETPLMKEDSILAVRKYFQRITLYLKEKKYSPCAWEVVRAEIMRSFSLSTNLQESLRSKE

SMILES: CCn1cc[n+](C)c1.O=S(=O)([O-])C(F)(F)C(F)(F)C(F)(F)C(F)(F)F [1-ethyl-3-methylimidazolium perfluorobutane sulfonate]
- Kd (0.41 μM IFN-α2b, max. conc. first capillary below 1st CAC (monomer)): no binding detected
- Kd (0.41 μM IFN-α2b, max. conc. first capillary in 2nd CAC range, 25 °C, read-out: Kd): 0.71 ± 0.37 mM
- Kd (0.41 μM IFN-α2b, max. conc. first capillary in 4th CAC range, 25 °C, read-out: Kd): 6.28 ± 1.09 mM
- Kd (2.7 μM IFN-α2b, max. conc. first capillary in 1st CAC range, 25 °C, read-out: Kd): 9.1 ± 6.38 mM
- Kd (2.7 μM IFN-α2b, max. conc. first capillary in 3rd CAC range, 25 °C, read-out: Kd): 29.9 ± 6.27 mM

Reference: publication PMC10931833, “Simultaneous Purification of Human Interferon Alpha-2b and Serum Albumin Using Bioprivileged Fluorinated Ionic Liquid-Based Aqueous Biphasic Systems” (International Journal of Molecular Sciences, 2024)
